Calls of active or inactive are those of the source.
Legend:
[1] = target: Cytochrome P450 2D6 (Homo sapiens, UniProt P10635);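 also: CYP2D6 member of a cytochrome P450 panel assay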
[2] = target: E3 ubiquitin-protein ligase XIAP (Homo sapiens, UniProt P98170); assay: Counter Screen using XIAP-Bir3 for Chemical Antagonists of Bir1/2 domains of IAP-family anti-apoptotic proteins. [Related pubchem assays (depositor defined):AID1018, AID1449, AID1514, AID1638, AID1749, AID1750, AID488957, AID488963]
[3] = target: T1, Serine/threonine-protein phosphatase (Candida dubliniensis (strain CD36 / CBS 7987 / NCPF 3949 / NRRLY-17841) (Yeast), UniProt B9W6M3); assay: calcineurin pathway inhibitors in yeast reporter, dose response, S. cerevisiae, CDRE-lacZ, luminescence, secondary (AID 2388); assay type: functional, cell-based;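 also: yeast reporter cells carrying a calcineurin-responsive lacZ construct stimulated with calcium chloride; luminescent beta-galactosidase reporter signal in whole cells rather than isolated phosphatase activity; potency for inhibition where a drop in reporter signal means calcineurin blockade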
T1 sequence (B9W6M3 whole entry): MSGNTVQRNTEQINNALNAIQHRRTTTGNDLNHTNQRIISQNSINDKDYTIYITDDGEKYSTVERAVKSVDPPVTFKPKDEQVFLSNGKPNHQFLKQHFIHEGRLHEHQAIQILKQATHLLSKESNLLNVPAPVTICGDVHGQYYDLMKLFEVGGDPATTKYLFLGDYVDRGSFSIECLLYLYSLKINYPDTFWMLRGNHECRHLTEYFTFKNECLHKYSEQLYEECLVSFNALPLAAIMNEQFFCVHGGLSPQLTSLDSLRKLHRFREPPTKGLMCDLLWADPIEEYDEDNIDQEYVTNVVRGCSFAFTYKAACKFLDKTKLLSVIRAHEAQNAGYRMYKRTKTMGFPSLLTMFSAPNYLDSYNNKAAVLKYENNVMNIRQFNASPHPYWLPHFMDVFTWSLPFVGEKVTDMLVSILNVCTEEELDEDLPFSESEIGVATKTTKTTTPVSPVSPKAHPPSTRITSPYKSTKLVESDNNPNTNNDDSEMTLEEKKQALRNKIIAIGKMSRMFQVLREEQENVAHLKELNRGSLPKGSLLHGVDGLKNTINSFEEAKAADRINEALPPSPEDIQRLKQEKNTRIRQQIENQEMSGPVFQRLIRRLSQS

[4] = target: ATP-dependent molecular chaperone HSP82 (Candida albicans (strain WO-1) (Yeast), UniProt C4YTQ8); assay: loss of DOC-induced GRE-beta-galactosidase reporter signal, dose response, Hsp90 inhibitor project, S. cerevisiae, luminescence (AID 2400); assay type: functional, cell-based;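 also: beta-galactosidase luminescence from glucocorticoid response element reporter as proxy for Hsp90 function; inhibitor potency where signal loss means Hsp90 inhibition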
Chain of ATP-dependent molecular chaperone HSP82 (C4YTQ8 whole entry): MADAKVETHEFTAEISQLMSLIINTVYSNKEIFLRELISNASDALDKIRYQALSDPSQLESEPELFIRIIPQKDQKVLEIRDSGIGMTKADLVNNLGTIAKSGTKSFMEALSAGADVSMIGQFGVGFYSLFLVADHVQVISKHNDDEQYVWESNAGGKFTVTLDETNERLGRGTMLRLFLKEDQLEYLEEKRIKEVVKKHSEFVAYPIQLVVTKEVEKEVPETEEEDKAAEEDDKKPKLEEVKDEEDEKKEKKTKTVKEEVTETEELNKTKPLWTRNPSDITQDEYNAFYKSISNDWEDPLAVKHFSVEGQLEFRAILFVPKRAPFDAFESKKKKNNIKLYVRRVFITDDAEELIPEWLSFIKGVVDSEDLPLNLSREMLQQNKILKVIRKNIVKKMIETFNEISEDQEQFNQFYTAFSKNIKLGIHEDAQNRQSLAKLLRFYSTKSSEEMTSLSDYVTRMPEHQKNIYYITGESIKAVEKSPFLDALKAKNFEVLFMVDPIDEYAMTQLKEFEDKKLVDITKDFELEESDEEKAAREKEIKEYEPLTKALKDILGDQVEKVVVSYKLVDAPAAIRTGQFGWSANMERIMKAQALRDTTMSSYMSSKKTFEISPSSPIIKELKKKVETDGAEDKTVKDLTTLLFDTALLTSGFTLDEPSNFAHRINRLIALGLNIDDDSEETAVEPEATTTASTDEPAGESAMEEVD

[5] = C. albicans growth with fluconazole, confirmation, fluorescence, retest (AID 2467); assay type: functional, cell-based
[6] = tested on: Streptococcus sp. 'group A'; assay: growth inhibition of control SK(-) GAS strain, dose response, counter-screen for streptokinase expression inhibitor project, luminescence, kanamycin, BacTiterGlo, confirmation (AID 1900); assay type: functional, organism-based
[7] = target: Heat shock protein HSP 90-alpha (Homo sapiens, UniProt P07900); assay type: functional, organism-based
[8] = tested on: Streptococcus; assay: Group A Streptococcus viability loss, dose response, counter-screen for streptokinase expression inhibitor project, luminescence, BacTiterGlo (AID 1915); assay type: functional, organism-based;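 also: potency for reduction of bacterial viability or growth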
[9] = NIH-3T3 fibroblast cytotoxicity, dose response, cytotoxicity control, cell-based, fluorescence, Alamar Blue, secondary assay (AID 2327); assay type: functional;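 also: NIH-3T3 mouse fibroblasts cultured with fluconazole at 8 µg/mL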
[10] = tested on: Escherichia coli; assay: microbe, parasite or virus in culture
[11] = target: Keap1/Nrf2 (Homo sapiens, UniProt Q14145); assay: Keap1-Nrf2 protein-protein interaction inhibitors, dose response, biochemical, fluorescence polarization, cherry-picked samples (AID 588683)
Chain of Keap1/Nrf2 (Q16236 whole entry): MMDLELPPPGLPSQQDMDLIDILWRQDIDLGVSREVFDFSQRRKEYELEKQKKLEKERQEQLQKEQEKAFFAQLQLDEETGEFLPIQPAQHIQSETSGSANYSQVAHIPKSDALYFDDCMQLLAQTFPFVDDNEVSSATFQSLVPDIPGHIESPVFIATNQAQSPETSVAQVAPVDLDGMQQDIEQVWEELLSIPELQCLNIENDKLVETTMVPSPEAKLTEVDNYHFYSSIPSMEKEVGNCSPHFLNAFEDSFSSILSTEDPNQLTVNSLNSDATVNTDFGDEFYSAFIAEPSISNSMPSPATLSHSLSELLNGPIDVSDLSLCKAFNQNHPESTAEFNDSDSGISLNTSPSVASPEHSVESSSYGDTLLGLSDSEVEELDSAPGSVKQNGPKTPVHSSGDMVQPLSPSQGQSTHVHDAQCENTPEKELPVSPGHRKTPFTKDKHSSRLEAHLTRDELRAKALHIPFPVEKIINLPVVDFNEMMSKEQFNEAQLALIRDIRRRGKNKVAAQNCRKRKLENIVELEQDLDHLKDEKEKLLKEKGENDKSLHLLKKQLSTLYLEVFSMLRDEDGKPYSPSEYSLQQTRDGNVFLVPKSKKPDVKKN
Chain of Keap1/Nrf2 (Q14145 whole entry): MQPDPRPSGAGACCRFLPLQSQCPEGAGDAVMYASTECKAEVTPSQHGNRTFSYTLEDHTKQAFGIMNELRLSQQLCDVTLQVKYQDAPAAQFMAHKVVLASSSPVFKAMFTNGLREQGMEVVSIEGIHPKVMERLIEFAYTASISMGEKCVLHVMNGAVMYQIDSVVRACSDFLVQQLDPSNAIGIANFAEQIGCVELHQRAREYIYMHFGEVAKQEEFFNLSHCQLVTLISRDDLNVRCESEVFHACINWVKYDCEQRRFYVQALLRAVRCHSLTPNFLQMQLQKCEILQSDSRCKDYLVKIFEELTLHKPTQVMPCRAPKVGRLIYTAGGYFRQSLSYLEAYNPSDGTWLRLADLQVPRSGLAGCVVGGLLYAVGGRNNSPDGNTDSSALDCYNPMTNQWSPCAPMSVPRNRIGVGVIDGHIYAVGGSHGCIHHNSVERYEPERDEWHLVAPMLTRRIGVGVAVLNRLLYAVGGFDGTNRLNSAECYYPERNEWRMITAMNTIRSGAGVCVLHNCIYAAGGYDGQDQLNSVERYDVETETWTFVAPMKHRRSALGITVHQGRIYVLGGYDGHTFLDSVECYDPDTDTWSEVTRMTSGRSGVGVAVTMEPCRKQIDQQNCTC

[12] = target: T2, Zinc finger protein mex-5 (Caenorhabditis elegans, UniProt Q9XUB2); assay: MEX-5/TCR-2 RNA interaction inhibitors, dose response, biochemical, C. elegans, fluorescence polarization (AID 1960)
T2 sequence (Q9XUB2 whole entry): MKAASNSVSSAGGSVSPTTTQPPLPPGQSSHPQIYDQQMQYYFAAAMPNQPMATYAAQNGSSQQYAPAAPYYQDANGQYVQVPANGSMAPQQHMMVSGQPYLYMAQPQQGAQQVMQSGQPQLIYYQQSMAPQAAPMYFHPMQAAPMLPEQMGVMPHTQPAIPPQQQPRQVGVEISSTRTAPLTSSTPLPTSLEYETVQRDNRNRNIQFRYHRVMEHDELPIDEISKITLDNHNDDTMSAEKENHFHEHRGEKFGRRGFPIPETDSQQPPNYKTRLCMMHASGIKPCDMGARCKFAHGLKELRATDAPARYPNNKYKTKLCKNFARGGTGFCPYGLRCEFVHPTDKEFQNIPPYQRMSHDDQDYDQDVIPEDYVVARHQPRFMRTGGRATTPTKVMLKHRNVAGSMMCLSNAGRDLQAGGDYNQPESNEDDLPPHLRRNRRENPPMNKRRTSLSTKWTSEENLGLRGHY

[13] = target: Neurotensin receptor type 1 (Homo sapiens, UniProt P30989); assay type: functional;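 also: Image-based confirmatory dose-response assay measuring agonist activity at NTR1; NTR1-expressing U2OS osteosarcoma cells imaged for beta-arrestin GFP spot formation; agonist potency where compounds increase beta-arrestin recruitment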
Chain of Neurotensin receptor type 1 (P30989 whole entry, the tested form may be a part): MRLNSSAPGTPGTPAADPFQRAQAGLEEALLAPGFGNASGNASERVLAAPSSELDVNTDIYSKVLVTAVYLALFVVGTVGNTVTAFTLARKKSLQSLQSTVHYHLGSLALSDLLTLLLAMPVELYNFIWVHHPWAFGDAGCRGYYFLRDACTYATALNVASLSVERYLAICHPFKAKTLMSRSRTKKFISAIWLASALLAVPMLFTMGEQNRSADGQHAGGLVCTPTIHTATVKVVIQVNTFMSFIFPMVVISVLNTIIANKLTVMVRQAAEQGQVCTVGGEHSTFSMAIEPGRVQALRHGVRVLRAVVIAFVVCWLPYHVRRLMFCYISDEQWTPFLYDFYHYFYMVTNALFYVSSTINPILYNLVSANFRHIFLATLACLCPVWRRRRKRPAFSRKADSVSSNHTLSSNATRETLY

[14] = target: T3, RNA-binding protein pos-1 (Caenorhabditis elegans, UniProt G5EF15); assay: inhibitors of POS-1/mex-3 RNA binding, dose response, biochemical, fluorescence polarization (AID 1964);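 also: purified POS-1 fused to maltose binding protein made in E. coli; potency of compounds blocking POS-1 binding to fluorescent RNA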
T3 sequence (G5EF15 whole entry): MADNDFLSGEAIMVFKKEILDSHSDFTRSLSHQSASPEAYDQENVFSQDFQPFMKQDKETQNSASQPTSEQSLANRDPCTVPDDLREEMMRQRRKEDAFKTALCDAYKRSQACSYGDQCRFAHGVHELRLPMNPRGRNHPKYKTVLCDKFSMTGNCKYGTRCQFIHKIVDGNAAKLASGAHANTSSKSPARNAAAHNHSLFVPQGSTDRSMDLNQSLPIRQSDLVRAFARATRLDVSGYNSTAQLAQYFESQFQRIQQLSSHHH

[15] = target: T4, Streptokinase A (Streptococcus pyogenes serotype M1, UniProt P10520); assay: S. pyogenes streptokinase expression inhibitors, potency, dose response, plasminogen activation absorbance, OD405 (AID 1914); assay type: functional, Streptococcus pyogenes M1 GAS;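 also: secreted streptokinase activity via plasminogen activation per viability signal from cell pellet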
T4 sequence (P10520 whole entry): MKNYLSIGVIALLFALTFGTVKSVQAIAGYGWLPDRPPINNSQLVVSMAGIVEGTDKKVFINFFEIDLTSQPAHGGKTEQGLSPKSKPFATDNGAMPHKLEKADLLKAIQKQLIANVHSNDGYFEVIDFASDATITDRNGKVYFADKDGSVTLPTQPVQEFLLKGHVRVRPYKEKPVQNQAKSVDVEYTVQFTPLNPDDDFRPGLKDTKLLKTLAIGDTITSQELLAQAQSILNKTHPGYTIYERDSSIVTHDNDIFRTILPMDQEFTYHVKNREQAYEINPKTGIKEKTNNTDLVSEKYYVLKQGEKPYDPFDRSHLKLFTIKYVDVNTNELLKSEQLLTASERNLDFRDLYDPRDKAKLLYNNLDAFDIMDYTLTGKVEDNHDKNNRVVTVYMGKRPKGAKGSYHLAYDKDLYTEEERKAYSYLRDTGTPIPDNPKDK

[16] = target: T5, Cysteine protease ATG4B (Homo sapiens, UniProt Q9Y4P1); assay type: functional;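 also: Fluorescence-based dose-response confirmation assay measuring inhibition of ATG4B activity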
T5 sequence (Q9Y4P1 whole entry): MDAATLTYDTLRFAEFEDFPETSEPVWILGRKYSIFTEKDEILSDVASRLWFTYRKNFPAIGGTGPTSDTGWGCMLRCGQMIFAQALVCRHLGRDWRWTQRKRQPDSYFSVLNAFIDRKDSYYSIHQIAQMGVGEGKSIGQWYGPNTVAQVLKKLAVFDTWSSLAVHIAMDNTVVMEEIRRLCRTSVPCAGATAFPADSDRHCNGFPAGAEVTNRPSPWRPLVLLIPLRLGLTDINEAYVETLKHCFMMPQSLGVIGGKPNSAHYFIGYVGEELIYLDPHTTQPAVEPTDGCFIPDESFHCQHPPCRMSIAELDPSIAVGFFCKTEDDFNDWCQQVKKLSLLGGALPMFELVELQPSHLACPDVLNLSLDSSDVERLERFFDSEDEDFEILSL

[17] = target: T6, Protein Tat (Human immunodeficiency virus type 1 group M subtype B (isolate HXB2)(HIV-1), UniProt P04608); assay type: functional;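 also: tat binding to TAR RNA read out by fluorescence polarization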
T6 sequence (P04608 whole entry): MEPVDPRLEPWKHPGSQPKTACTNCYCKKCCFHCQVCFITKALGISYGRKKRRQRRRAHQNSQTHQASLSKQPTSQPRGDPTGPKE

[18] = tested on: Escherichia coli; assay: microbe, parasite or virus in culture; remark: listed apart in the source
[19] = target: Phospholipase A2 (Homo sapiens, UniProt P04054); assay type: functional;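 also: confirmatory dose-response counterscreen on phospholipase A2, testing hits that came from an ultra-high-throughput screen for ATG4B inhibitors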
Chain of Phospholipase A2 (P04054 whole entry): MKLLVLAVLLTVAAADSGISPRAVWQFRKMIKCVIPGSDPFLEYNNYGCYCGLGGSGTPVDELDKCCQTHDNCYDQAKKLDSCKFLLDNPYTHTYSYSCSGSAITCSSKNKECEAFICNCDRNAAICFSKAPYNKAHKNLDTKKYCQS

Chain of E3 ubiquitin-protein ligase XIAP (P98170 whole entry): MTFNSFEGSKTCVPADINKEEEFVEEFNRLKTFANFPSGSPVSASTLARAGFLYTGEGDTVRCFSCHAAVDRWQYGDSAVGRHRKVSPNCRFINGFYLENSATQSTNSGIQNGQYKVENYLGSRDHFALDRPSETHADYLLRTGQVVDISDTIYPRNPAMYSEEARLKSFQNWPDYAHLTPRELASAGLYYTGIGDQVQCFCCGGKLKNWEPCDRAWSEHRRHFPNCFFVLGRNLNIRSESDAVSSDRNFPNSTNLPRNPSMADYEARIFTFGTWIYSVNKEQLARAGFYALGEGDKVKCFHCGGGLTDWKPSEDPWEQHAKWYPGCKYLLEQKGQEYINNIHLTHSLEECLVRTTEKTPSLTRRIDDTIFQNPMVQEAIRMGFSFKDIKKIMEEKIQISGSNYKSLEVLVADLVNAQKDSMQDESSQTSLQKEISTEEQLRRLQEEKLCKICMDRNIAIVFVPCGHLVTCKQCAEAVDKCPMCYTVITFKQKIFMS
Chain of Cytochrome P450 2D6 (P10635 whole entry): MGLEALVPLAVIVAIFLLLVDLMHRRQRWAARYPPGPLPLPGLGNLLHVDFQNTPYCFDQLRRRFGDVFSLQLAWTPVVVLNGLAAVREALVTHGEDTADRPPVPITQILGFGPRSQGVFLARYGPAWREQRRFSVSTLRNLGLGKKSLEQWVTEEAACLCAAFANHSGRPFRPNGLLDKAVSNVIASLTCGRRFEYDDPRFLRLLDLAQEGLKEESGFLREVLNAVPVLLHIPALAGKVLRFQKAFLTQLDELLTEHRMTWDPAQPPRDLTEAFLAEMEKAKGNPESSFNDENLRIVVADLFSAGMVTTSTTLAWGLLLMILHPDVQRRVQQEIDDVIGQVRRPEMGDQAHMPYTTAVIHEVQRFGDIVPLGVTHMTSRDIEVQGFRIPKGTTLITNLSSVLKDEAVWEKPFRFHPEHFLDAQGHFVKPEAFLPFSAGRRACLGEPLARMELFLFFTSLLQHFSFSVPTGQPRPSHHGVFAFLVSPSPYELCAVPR

Nc1ccc(S(=O)(=O)NCCS(=O)(=O)O)cc1
AC50 [1]: inconclusive

C=CCc1cccc2cc(C(=O)Nc3ccc(CC(=O)O)cc3)c(=O)oc12
IC50 [2]: > 20 µM (inactive)

Oc1c(C(c2ccc(Cl)cc2)N2CCCC2)cc(Cl)c2cccnc12 (configuration not stated)
EC50 [3]: > 180 µM (inactive) | EC50 [4]: 22.5 µM (active) | EC50 [5]: 0.135 µM (active) | EC50 [6]: 1.34 µM (active) | AC50 [7]: 2.02 µM (active) | EC50 [8]: 1.41 µM (active) | EC50 [9]: 15 µM (active)

CN(CC(=O)NCc1cccnc1)S(=O)(=O)c1ccccc1
AC50 [10]: 54.1 µM (active)

CN1CC=C2C(C#N)=C(N)C(C#N)(C#N)[C@H](c3cccs3)[C@H]2C1
AC50 [11]: > 52 µM (inactive)

COc1ccc(OC)c(N/C=C2/C(=O)NC(=S)N(Cc3ccccc3)C2=O)c1
EC50 [12]: > 300 µM (inconclusive) | EC50 [13]: 38.3 µM (inactive) | EC50 [6]: > 150 µM (not active) | EC50 [14]: > 300 µM (not active) | EC50 [15]: > 150 µM (not active) | EC50 [8]: > 150 µM (not active)

CN(C)[C@@H]1C(O)=C(C(N)=O)C(=O)[C@@]2(O)C(O)=C3C(=O)c4c(O)ccc(Cl)c4[C@@](C)(O)C3C[C@@H]12 (some centres not stated)
IC50 [16]: 6.14 µM (active) | AC50 [10]: 1.2 µM (active) | IC50 [17]: > 100 µM (active) | AC50 [18]: 47 µM (active) | IC50 [19]: 5.75 µM (active)
